For the experiment, the target named is T1, recombinant 15-PGDH (Homo sapiens, UniProt P15428).
T1 sequence (P15428 1-266): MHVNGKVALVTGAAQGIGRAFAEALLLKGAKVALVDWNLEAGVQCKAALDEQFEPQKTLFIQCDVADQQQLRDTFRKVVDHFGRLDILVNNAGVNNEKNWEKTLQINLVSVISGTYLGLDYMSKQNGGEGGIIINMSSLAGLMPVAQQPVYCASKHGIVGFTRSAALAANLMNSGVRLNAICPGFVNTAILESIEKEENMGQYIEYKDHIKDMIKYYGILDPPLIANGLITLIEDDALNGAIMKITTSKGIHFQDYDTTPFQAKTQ
Kind of experiment: inhibition of enzymatic activity of recombinant 15-PGDH in vitro. It is filed as biochemical. The following applies: recombinant human 15-PGDH. The source says:
The Recombinant 15-PGDH is human unless otherwise specified.

Consider `COCC[S+]([O-])c1sc2nc(-c3ccc4nccnc4c3)cc(C(C)C)c2c1N` (single isomer, unassigned) [Compound 25, 2-[2-methoxyethanesulfinyl]-4-(propan-2-yl)-6-(quinoxalin-6-yl)thieno[2,3-b]pyridin-3-amine], for which the IC50 is more than 10 nM. The value for `COCC[S@@+]([O-])c1sc2nc(-c3cnc(N)nc3)cc(C(C)C)c2c1N` (stereo in doubt) [Compound 18, 5-{3-amino-2-[2-methoxyethanesulfinyl]-4-(propan-2-yl)thieno[2,3-b]pyridin-6-yl}pyrimidin-2-amine] was less than 2.5 nM; that for `COCC[S@+]([O-])c1sc2nc(-c3cnc(N)nc3)cc(C(C)C)c2c1N` (stereo in doubt) [Compound 19, 5-{3-amino-2-[2-methoxyethanesulfinyl]-4-(propan-2-yl)thieno[2,3-b]pyridin-6-yl}pyrimidin-2-amine] was more than 10 nM; that for `CNc1ncc(-c2cc(C(C)C)c3c(N)c([S+]([O-])CCOC)sc3n2)cn1` (stereo in doubt) [Compound 23, 5-{3-amino-2-[(R)-2-methoxyethanesulfinyl]-4-(propan-2-yl)thieno[2,3-b]pyridin-6-yl}-N-methylpyrimidin-2-amine] was more than 10 nM. As for `COCC[S@@+]([O-])c1sc2nc(-c3ccc4nccnc4c3)cc(C(C)C)c2c1N` (stereo in doubt) [Compound 24, 2-[2-methoxyethanesulfinyl]-4-(propan-2-yl)-6-(quinoxalin-6-yl)thieno[2,3-b]pyridin-3-amine], the IC50 was less than 2.5 nM.

Turning to `Cn1nccc1-c1cc(-c2cnc3ncccc3c2)nc2sc([S@+]([O-])C3CCC3)c(N)c12` (stereo in doubt) [Compound 26, 2-(cyclobutanesulfinyl)-4-(1-methyl-1H-pyrazol-5-yl)-6-(1,8-naphthyridin-3-yl)thieno[2,3-b]pyridin-3-amine], the IC50 was less than 2.5 nM.

As for `Cn1nccc1-c1cc(-c2cnc3ncccc3c2)nc2sc([S@@+]([O-])C3CCC3)c(N)c12` (stereo in doubt) [Compound 27, 2-(cyclobutanesulfinyl)-4-(1-methyl-1H-pyrazol-5-yl)-6-(1,8-naphthyridin-3-yl)thieno[2,3-b]pyridin-3-amine], the IC50 is more than 10 nM. The value for `Cn1nccc1-c1cc(-c2ccc3nccnc3c2)nc2sc([S@+]([O-])C3CCC3)c(N)c12` [Compound 1, (R)-2-(cyclobutylsulfinyl)-4-(1-methyl-1H-pyrazol-5-yl)-6-(quinoxalin-6-yl)thieno[2,3-b]pyridin-3-amine] was less than 2.5 nM. For `Cn1nccc1-c1cc(-c2ccc3cncnc3c2)nc2sc([S@+]([O-])C3CCC3)c(N)c12` [Compound 2, 2-[(R)-cyclobutanesulfinyl]-4-(1-methyl-1H-pyrazol-5-yl)-6-(quinazolin-7-yl)thieno[2,3-b]pyridin-3-amine], the IC50 is less than 2.5 nM. The value for `COCC[S+]([O-])c1sc2nc(-c3cnc4cccnc4c3)cc(-c3ccnn3C)c2c1N` (stereo not shown) [Compound 3, 2-(2-methoxyethanesulfinyl)-4-(1-methyl-1H-pyrazol-5-yl)-6-(1,5-naphthyridin-3-yl)thieno[2,3-b]pyridin-3-amine] was less than 2.5 nM. In the case of `COCC[S@@+]([O-])c1sc2nc(-c3ccc4nccnc4c3)cc(-c3ccnn3C)c2c1N` [Compound 4, 2-[(R)-2-methoxyethanesulfinyl]-4-(1-methyl-1H-pyrazol-5-yl)-6-(quinoxalin-6-yl)thieno[2,3-b]pyridin-3-amine] it was less than 2.5 nM; in that of `Cn1nccc1-c1cc(-c2cnc3ncccn23)nc2sc([S@+]([O-])C3CCC3)c(N)c12` [Compound 5, 2-[(R)-cyclobutanesulfinyl]-6-{imidazo[1,2-a]pyrimidin-3-yl}-4-(1-methyl-1H-pyrazol-5-yl)thieno[2,3-b]pyridin-3-amine], 2.5 to 10 nM; in that of `COCC[S+]([O-])c1sc2nc(-c3cnc4ncccc4c3)cc(C3CCC3)c2c1N` (stereo not shown) [Compound 6, 4-cyclobutyl-2-(2-methoxyethanesulfinyl)-6-(1,8-naphthyridin-3-yl)thieno[2,3-b]pyridin-3-amine], less than 2.5 nM.

Values taken from patent US20230192717A1, “COMPOSITIONS AND METHODS OF MODULATING SHORT-CHAIN DEHYDROGENASE ACTIVITY” (RODEO THERAPEUTICS CORPORATION, priority 2020, published 2023).
